Data published in patent US6458808B1, “Pharmaceutical composition for the treatment of cognitive cerebrovascular disease” (Osmotica Corp., priority 2000, dated 2002).

Experiments:
[1] = in vivo; cited from earlier work
[2] = test system: patients having either mild or very mild cognitive deterioration; experiment: Double-blind 16-week clinical trial (CDR, Barthel's, Folstein's tests, Global Clinical Impression); format: in vivo, human; conditions: for Global Clinic Impression: after 16-week treatment, code 1 highly worsened, 4 unchanged, 5 slightly improved, 6 improved, 7 highly improved; for BARTHEL's test, final mark / CDR test, final mark / FOLSTEIN's test, final mark: group average after 16-week treatment, twice a day; for FOLSTEIN's test, final mark: higher mark = favorable; for BARTHEL's test, initial mark / FOLSTEIN's test, initial mark / CDR test, initial mark: group average at baseline, before 16-week treatment; for CDR test, initial mark: twice a day oral
Excerpt: Seventy nine patients having either mild or very mild cognitive deterioration with the following inclusion criterion:
Antecedents of ischaemic cerebrovascular pathology with symptoms or only with expression in brain computerized tomography (silent infarct). In case of focal or acute multimodal symptoms, at least a three-month period should elapse since symptoms evidence before being included in the tests.
Severity of cognitive deterioration was of the very mild or mild type CDR scale 0,5 and 1 (Clinical Dementia Rating).
Patients were selected from the Neurology area of four different hospitals. In each center a randomization list for parallel groups was established. Tablets in the three groups had the same aspect so as to preserve the double-blind characteristic of the study.
For diagnosis of cognitive deterioration and its association to ischaemic cerebrovascular disorders the criteria proposed in 1992 by the California University, USA, were used, in both their probable and possible forms.
The degree of severity of the cognitive disorder is limited to a borderline, mild condition, according to CDR scale in its points 0.5 and 1. A Hamilton test is carried out in order to detect a depressive condition, which shall contribute to the differential diagnosis of a pseudo dementia.
The Barthel index was used for evaluation of everyday life.
During the initial period a washing in medicine intake was made, in the weeks −4 to 0, the latter being the baseline for those drugs considered to be vasoactive or nootropic.
The observation period lasted 16 weeks, so patients were randomized in three groups which received as double-blind treatment:
Idebenone 45 mg, twice a day.
Nimodipine 30 mg, twice a day.
Idebenone 45 mg+Nimodipine 30 mg, twice a day.
Therapeutic efficacy criteria were based on the results of Folstein's, CDR and Barthel's scales and Global Clinical Impression (GCI). In order to evaluate therapeutic efficacy between the group receiving the combined dosage and the groups receiving the idebenone or nimodipine alone, a statistically significant improvement in one of the following criteria should exist: […]

[3] = oral, multiple doses of 45 or 100 mg, healthy volunteers; cited from earlier work

Row | SMILES | delivery to tissues [1] | Global Clinic Impression [2] | BARTHEL's test, final mark [2] | CDR test, final mark [2] | FOLSTEIN's test, final mark [2] | BARTHEL's test, initial mark [2] | FOLSTEIN's test, initial mark [2] | CDR test, initial mark [2] | accumulation after repeated doses [3]
1 | COC1=C(OC)C(=O)C(CCCCCCCCCCO)=C(C)C1=O [Group A, 6-(10-hydroxydecil)-2,3-dimethoxy-5-methyl-1,4-benzoquinone] | widely delivered to different tissues, including the brain | 5.0 | 87.6 | 0.64 | 24.8 | 87.2 | 22.8 | 0.68 | Accumulation does not occur
2 | COCCOC(=O)C1=C(C)NC(C)=C(C(=O)OC(C)C)C1c1cccc([N+](=O)[O-])c1 (stereo not shown) [Group B, 1,4-dyhidro-5-(isopropoxycarbonyl)-2,6-dimethyl-4-(3-nitrophenyl)-3-pyridine-carboxylate of 2-methoxyethyl] | – | 4.9 | 81.1 | 0.63 | 23.9 | 80.7 | 22.5 | 0.67 | –
